Measurements published in patent US12679807B2 (MERCK SHARP & DOHME LLC, priority 2020, dated 2026).
pEC50: −log10 of the molar value.

What follows are molecules tested against T1, GCS enzyme contained within Golgi preparations isolated from human A375 malignant melanoma skin cells (Homo sapiens, UniProt Q16739) (assay: UDP-Glo glucosylceramide synthase biochemical assay). Conditions: crude Golgi preparation from A375 cells; C6 ceramide and UDP-glucose substrates; 20 h incubation at room temperature; UDP detected by luminescence.
T1 construct: endogenous levels of GCS enzyme contained within Golgi preparations isolated from human A375 malignant melanoma skin cells; endogenous in cells; host or cells: A375 human malignant melanoma cells (crude Golgi preparation)
T1 sequence (Q16739 1-394): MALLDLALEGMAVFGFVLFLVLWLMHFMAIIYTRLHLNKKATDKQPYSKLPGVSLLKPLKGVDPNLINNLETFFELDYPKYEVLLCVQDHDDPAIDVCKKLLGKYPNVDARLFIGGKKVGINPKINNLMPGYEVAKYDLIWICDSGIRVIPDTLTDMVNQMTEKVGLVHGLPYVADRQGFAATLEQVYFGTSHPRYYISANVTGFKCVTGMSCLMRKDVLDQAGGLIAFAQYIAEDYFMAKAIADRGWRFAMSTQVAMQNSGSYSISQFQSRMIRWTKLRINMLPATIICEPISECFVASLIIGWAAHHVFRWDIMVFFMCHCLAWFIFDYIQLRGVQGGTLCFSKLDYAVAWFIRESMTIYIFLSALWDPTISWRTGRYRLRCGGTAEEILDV
Text: UDP-Glo™ Glucosylceramide Synthase Biochemical Assay
A UDP-Glo™ glucosylceramide synthase biochemical assay was utilized to evaluate the effect of test compounds on the activity of endogenous levels of GCS enzyme contained within Golgi preparations isolated from human A375 malignant melanoma skin cells. The UDP-Glo™ glucosylceramide synthase assay uses UDP-Glucose as a nucleotide-glycosyl donor and ceramide as substrate acceptor molecules. In the reaction, glucosylceramide synthase (GCS) transfers glucose from UDP-Glucose to ceramide. Glucosylceramide and UDP are released as products.
Using Promega's UDP-Glo™ Glycosyltransferase assay kit (Promega Corporation, Madison, WI, USA (Promega)), GCS activity was indirectly measured by detecting the amount of UDP produced. An aliquot of GCS enzyme (1.5 μg crude golgi preparation, total protein) and titrated test compound were aliquoted to each well and incubated for 30 minutes at room temperature. […] An equivalent volume of substrate mixture was then added to each well. Following a 20 h incubation at room temperature to allow for GCS turnover of substrate, an equal volume of UDP detection reagent (Promega) was added to each well and incubated for an additional 75 minutes at room temperature to simultaneously convert the accumulated UDP product into ATP and generate light in a luciferase reaction. The generated light was detected using a luminometer. […] luminescence values (RLUs) were normalized to mean “min” and “max” effects, as determined on each plate. […] Values for % Emax and EC50 were determined by best-fitting the normalized data to a curve in Activity Base along a four-parameter logistic nonlinear regression (4PL) model (based on the Levenberg-Marquardt algorithm and defined by the equation below):
[formula] where: n is 4 PMin (bottom of the curve); m is 4 PMax (top of the curve); i is IP (inflection point of curve); and p is slope. See Levenberg, K., “A Method for the Solution of Certain Problems in Least Squares”, Quart. Appl. Math. […] Math.
`Cc1cccc(C(=O)Nc2cccc3c2C(=O)N(C(C2CC2)C(C)(C)O)C3)c1Cl` (single isomer, unassigned) [Compound 113, (R or S)-2-chloro-N-(2-(1-cyclopropyl-2-hydroxy-2-methylpropyl)-3-oxoisoindolin-4-yl)-3-methylbenzamide] was tested, and the pEC50 was 8.92. `CC(C)(O)C(C1CC1)N1Cc2cccc(NC(=O)c3cccc4c3CCC4)c2C1=O` (single isomer, unassigned) [Compound 114, (R or S)-N-(2-(1-cyclopropyl-2-hydroxy-2-methylpropyl)-3-oxoisoindolin-4-yl)-2,3-dihydro-1H-indene-4-carboxamide] was tested, and the pEC50 was 8.89. Work on `CC(C)(O)C(C1CC1)N1Cc2cccc(NC(=O)c3c(F)ccc(F)c3Cl)c2C1=O` (single isomer, unassigned) [Compound 115, (R or S)-2-chloro-N-(2-(1-cyclopropyl-2-hydroxy-2-methylpropyl)-3-oxoisoindolin-4-yl)-3,6-difluorobenzamide] yielded a pEC50 of 8.82. With `CC(C)(O)C(C1CC1)N1Cc2cccc(NC(=O)c3cccc(F)c3C(F)(F)F)c2C1=O` (single isomer, unassigned) [Compound 116, (R or S)-N-(2-(1-cyclopropyl-2-hydroxy-2-methylpropyl)-3-oxoisoindolin-4-yl)-3-fluoro-2-(trifluoromethyl)benzamide] the pEC50 was 8.51. With `Cc1c(F)cccc1C(=O)Nc1cccc2c1C(=O)N(C(C1CC1)C(C)(C)O)C2` (single isomer, unassigned) [Compound 119, (R or S)-N-(2-(1-cyclopropyl-2-hydroxy-2-methylpropyl)-3-oxoisoindolin-4-yl)-3-fluoro-2-methylbenzamide] the pEC50 was 8.14. `Cc1c(C(=O)Nc2cccc3c2C(=O)N(C(C2CC2)C(C)(C)O)C3)cccc1C(F)(F)F` (single isomer, unassigned) [Compound 120, (R or S)-N-(2-(1-cyclopropyl-2-hydroxy-2-methylpropyl)-3-oxoisoindolin-4-yl)-2-methyl-3-(trifluoromethyl)benzamide] gave a pEC50 of 8.00. With `CC(C)(O)C(C1CC1)N1Cc2cccc(NC(=O)c3cccc4ncsc34)c2C1=O` (single isomer, unassigned) [Compound 131, (R or S)-N-(2-(1-cyclopropyl-2-hydroxy-2-methylpropyl)-3-oxoisoindolin-4-yl)benzo[d]thiazole-7-carboxamide] the pEC50 was 7.35. In the case of `COCC(C1CC1)N1Cc2cccc(NC(=O)c3ccnc4c3CCC4)c2C1=O` (single isomer, unassigned) [Compound 136, (R or S)-N-(2-(1-cyclopropyl-2-methoxyethyl)-3-oxoisoindolin-4-yl)-6,7-dihydro-5H-cyclopenta[b]pyridine-4-carboxamide], the pEC50 was 7.10. Molecule `CC(C)(O)C(C1CC1)N1Cc2cncc(NC(=O)c3ccnc4c3CCC4)c2C1=O` (single isomer, unassigned) [Compound 151, (R or S)—N-(2-(1-Cyclopropyl-2-hydroxy-2-methylpropyl)-1-oxo-2,3-dihydro-1H-pyrrolo[3,4-c]pyridin-7-yl)-6,7-dihydro-5H-cyclopenta[b]pyridine-4-carboxamide] has a pEC50 of 7.21. In the case of `CC(C)(O)C(C1CC1)N1Cc2nccc(NC(=O)c3ccnc4c3CCC4)c2C1=O` (single isomer, unassigned) [Compound 152, (R or S)-N-(6-(1-cyclopropyl-2-hydroxy-2-methylpropyl)-5-oxo-6,7-dihydro-5H-pyrrolo [3,4-b]pyridin-4-yl)-6,7-dihydro-5H-cyclopenta[b]pyridine-4-carboxamide], the pEC50 was 7.02. With `COc1ncc(C)c(C(=O)Nc2cccc3c2C(=O)N(C(C2CC2)C(C)(C)O)C3)c1C` (single isomer, unassigned) [Compound 153, (R or S)-N-(2-(1-cyclopropyl-2-hydroxy-2-methylpropyl)-3-oxoisoindolin-4-yl)-2-methoxy-3,5-dimethylisonicotinamide] the pEC50 was 7.54. In the case of `COc1ncc(Cl)c(C(=O)Nc2cccc3c2C(=O)N(C(C2CC2)C(C)(C)O)C3)c1C` (single isomer, unassigned) [Compound 154, (R or S)-5-Chloro-N-(2-(1-cyclopropyl-2-hydroxy-2-methylpropyl)-3-oxoisoindolin-4-yl)-2-methoxy-3-methylisonicotinamide], the pEC50 was 10.00. `CC(C)(O)C(C1CC1)N1Cc2cccc(NC(=O)c3c(Cl)cnc4c3CCO4)c2C1=O` (single isomer, unassigned) [Compound 155, (R or S)-5-Chloro-N-(2-(1-cyclopropyl-2-hydroxy-2-methylpropyl)-3-oxoisoindolin-4-yl)-2,3-dihydrofuro[2,3-b]pyridine-4-carboxamide] was tested, and the pEC50 was 9.72. `CC(C)(O)C(C1CC1)N1Cc2cccc(NC(=O)c3c(Cl)cnc4c3OCO4)c2C1=O` (single isomer, unassigned) [Compound 157, (R or S)-6-chloro-N-(2-(1-cyclopropyl-2-hydroxy-2-methylpropyl)-3-oxoisoindolin-4-yl)-[1,3]dioxolo[4,5-b]pyridine-7-carboxamide] gave a pEC50 of 9.31. For `CC(C)(O)C(C1CC1)N1Cc2cccc(NC(=O)c3ccnc4c3CCC4)c2C1=O` (single isomer, unassigned) [Compound 158, (R or S)-N-(2-(1-cyclopropyl-2-hydroxy-2-methylpropyl)-3-oxoisoindolin-4-yl)-6,7-dihydro-5H-cyclopenta[b]pyridine-4-carboxamide], the pEC50 was 9.00. Molecule `Cn1cc2c(C(=O)Nc3cccc4c3C(=O)N(C(C3CC3)C(C)(C)O)C4)cccc2n1` (single isomer, unassigned) [Compound 160, (R or S)-N-(2-(1-cyclopropyl-2-hydroxy-2-methylpropyl)-3-oxoisoindolin-4-yl)-2-methyl-2H-indazole-4-carboxamide] has a pEC50 of 8.23. `CC(C)(O)C(C1CC1)N1Cc2cccc(NC(=O)c3ccnc4c3CCO4)c2C1=O` (single isomer, unassigned) [Compound 162, (R or S)-N-(2-(1-cyclopropyl-2-hydroxy-2-methylpropyl)-3-oxoisoindolin-4-yl)-2,3-dihydrofuro[2,3-b]pyridine-4-carboxamide] showed a pEC50 of 7.64. `CC(C)(O)C(C1CC1)N1Cc2cccc(NC(=O)c3ccnc4c3OCCO4)c2C1=O` (single isomer, unassigned) [Compound 163, (R or S)-N-(2-(1-cyclopropyl-2-hydroxy-2-methylpropyl)-3-oxoisoindolin-4-yl)-2,3-dihydro-[1,4]dioxino[2,3-b]pyridine-8-carboxamide] gave a pEC50 of 7.21. `COc1nccc(C(=O)Nc2cccc3c2C(=O)N(C(C2CC2)C(C)(C)O)C3)c1OC` (single isomer, unassigned) [Compound 164, (R or S)-N-(2-(1-cyclopropyl-2-hydroxy-2-methylpropyl)-3-oxoisoindolin-4-yl)-2,3-dimethoxyisonicotinamide] was tested, and the pEC50 was 7.11. In the case of `COC(C)(C)C(C1CC1)N1Cc2cccc(NC(=O)c3ccnc4c3CCC4)c2C1=O` (single isomer, unassigned) [Compound 165, (R or S)-N-(2-(1-cyclopropyl-2-methoxy-2-methylpropyl)-3-oxoisoindolin-4-yl)-6,7-dihydro-5H-cyclopenta[b]pyridine-4-carboxamide], the pEC50 was 6.70. For `Cc1cnc2c(c1C(=O)Nc1cccc3c1C(=O)N(C(C1CC1)C(C)(C)O)C3)CCO2` (single isomer, unassigned) [Compound 168, (R or S)—N-(2-(1-Cyclopropyl-2-hydroxy-2-methylpropyl)-3-oxoisoindolin-4-yl)-5-methyl-2,3-dihydrofuro[2,3-b]pyridine-4-carboxamide], the pEC50 was 9.52. Work on `Cc1cnc2c(c1C(=O)Nc1cccc3c1C(=O)N(C(C1CC1)C(C)(C)O)C3)OCO2` (single isomer, unassigned) [Compound 169, (R or S)—N-(2-(1-Cyclopropyl-2-hydroxy-2-methylpropyl)-3-oxoisoindolin-4-yl)-6-methyl-[1,3]dioxolo[4,5-b]pyridine-7-carboxamide] yielded a pEC50 of 9.40. Work on `CC(C)(O)C(C1CC1)N1Cc2cccc(/C=C/c3ccnc4c3CCC4)c2C1=O` (single isomer, unassigned) [Compound 171, (R or S)-(E)-2-(1-Cyclopropyl-2-hydroxy-2-methylpropyl)-7-(2-(6,7-dihydro-5H-cyclopenta[b]pyridin-4-yl)vinyl)isoindolin-1-one] yielded a pEC50 of 6.64.
